Entries after “also recorded” stand apart in the source; their conditions may differ. Like-named read-outs stand apart in the source and are kept apart here.
What was measured:
[1] = test system: HpNoco2 (virulent Peronospora); assay: HpNoco2 disease resistance assay on soil grown seedlings (spore / sporangiophore counts 7 dpi); format: in vivo, Arabidopsis; conditions: for efficiency in inducing resistance to HpNoco2 (defense inducing activity): infection 48 hours after treatment, structure-activity analysis
Method: (§1) (A) RT-PCR analysis of CaBP22 and WRKY70 expression in Col-0 (wild type) and mutant backgrounds 24 hours after spraying 2 week old seedlings with water (un), 1 mM SA, or 100 μM DCA. ACT8 is shown as loading control. […] (B) Two week old seedlings were sprayed with virulent HpNoco2 24 hours after pre-treatment with 100 uM DCA. Spores were counted 7 days after spray infection. Means and standard errors were calculated from three independent experiments. Mann-Whitney U test (p<0.05) was used to determine significant differences among mutants.
(§2) A: Extent of disease susceptibility/resistance determined by counting the numbers of Peronospora sproangiophores of 17 day old seedlings 7 d after spray-inoculation with 5E4 HpNoco2 spores/ml. 24 h prior to infection with Noco2 the aerial parts of the soil grown seedlings were sprayed with the indicated concentrations of DCA (compound 67) or SA. Three replicates each with at least 30 seedlings per treatment gave similar results. […] Concentrations higher than 100 μM caused cell death, as indicated by reduced GUS staining.
(§3) (A) Chemical structures of DCA analogs analyzed. (B) Fluorometric analysis of GUS activities induced by DCA analogs. Proteins were extracted from 2 week old soil grown Col-0 seedlings 48 hours after spray-treatment with compounds at the indicated concentrations (uM). Means and standard errors calculated from 3 independent replicates. (c) HpNoco2 growth inhibition assay. 2 week old soil grown Col-0 seedlings were spray-infected with HpNoco2 48 hours after treatment with varying concentrations (uM) of each DCA analog. Seedlings were assayed 7 dpi for Peronospora growth (spore counts). 100% inhibition=0 spores. Assay was repeated three times with similar results.
DCA induces disease resistance. Time-course experiment with 2-week old Col-0 seedlings that were sprayed with 100 uM of the respective compounds at the indicated times prior to HpNoco2 (3×10^4 spores/ml) spray-infection. Spores were counted 7 dpi.

−333_CaBP22::GUS [2] = assay: GUS activity after spray-treatment of soil grown seedlings (structure-activity analysis, FIG. 5B, FIG. 8B); format: in vivo, Arabidopsis; conditions: for efficiency in inducing −333_CaBP22::GUS expression (defense inducing activity): 48 hours after spray-treatment, structure-activity analysis
Method: as §3, with “(B) Fluorometric analysis of GUS activities induced by DCA analogs.” left out, “spores.” for “spores. Assay was repeated three times with similar results.”
DCA and the known SA-analog INA are structurally related. To compare their activities and to gain further understanding on structural features required for their defense inducing activities, a structure function analysis (SAR) was performed using multiple derivatives of DCA and INA (FIG. 8A).

PR1 = conditions: Wendehenne et al., 1998; Pillonel, 2001; read-out: published EC50 value for PR1 induction; cited from earlier work
−333_CaBP22::GUS [3] = assay: −333_CaBP22::GUS reporter induction in one-week old seedlings grown in liquid medium (Xgluc staining / MUG assay); format: in vivo, Arabidopsis; conditions: for EC50: −333_CaBP22::GUS, MUG assay, read-out: EC50 value (effective concentration leading to a half-maximal response)
Method: A: Structure of DCA. B/C: Dose-response curves. One-week old −333_CaBP22::GUS seedlings were grown in liquid medium and incubated with the indicated concentrations of DCA (67) or SA for 24 h prior to Xgluc staining (blue, panel B) or quantitative assays for GUS activity using 4-methyl umbelliferyl-glucuronide (MUG, panel C).
LURP expression appears to be controlled by a multitude of defense regulators including AtWRKY70 and so far unknown transcription factors. […] Thus LURP-promoter/reporter systems are useful tools to screen for defense inducing chemicals. A 333_CaBP22::GUS line was used to screen chemical libraries of the Center for Plant Cell Biology at UC-Riverside for substances that induce activity of this reporter in the absence of pathogens. One week old seedlings of the reporter line grown in 96 well plates with liquid MS medium were treated with library chemicals at a final concentration of 4-20 microM in 0.001% DMSO and stained with X-Gluc to detect GUS activity 24 h later (FIG. 2). The library chemicals were transferred from 384 well plates to the 96 well screening plates by a “96 pin-tool” using a pipetting robot.
Most of the identified −333_CaBP22::GUS-inducers are structurally related to the defense hormone salicylic acid (SA). One of these compounds, 3,5-Dichloroanthranilic acid (DCA, FIG. 3A) to be particularly efficient in inducing −333_CaBP22::GUS expression. The chemical structure of this compound was confirmed by NMR and MS analyses. […] Thus, DCA has a high specificity for its cellular target. Consistent with this the EC50 value (effective concentration leading to a half-maximal response) of DCA is 6 uM (FIG. 3C), which is lower than the published EC50 value for PR1 induction by SA and its functional analog INA (65 and 10 uM, respectively; Wendehenne et al., 1998; Pillonel, 2001).

[4] = test system: −333_CaBP22::GUS seedlings; assay: toxic effects on plants after spraying aerial parts of seedlings; format: in vivo
Method: as §2

CaBP22 = assay: semiquantitative RT-PCR of CaBP22 expression; format: in vivo, Arabidopsis
Method: as §1, with “(A) RT-PCR analysis of CaBP22 and WRKY70 expression in Col-0 (wild type) and mutant backgrounds 24 hours after spraying 2 week old seedlings with water (un), 1 mM SA, or 100 μM DCA.” left out
As the CaBP22-induction by DCA is blocked in the wrky70 mutant, this compound can interfere with a signaling component that acts upstream from WRKY70 transcription and either independently of downstream from SA. Based on this DCA targets a WRKY70-dependent branch of the defense signaling network.

WRKY70 = assay: semiquantitative RT-PCR of WRKY70 expression; format: in vivo, Arabidopsis
[5] = test system: Pseudomonas syringae DC3000 (Pst DC3000); assay: Pst DC3000 disease resistance in Arabidopsis seedlings (dip inoculation, cfu); format: in vivo; conditions: 100 uM
Method: (§4) (A &B) 14 day old soil grown Arabidopsis Col-0 seedlings were pre-treated with 100 uM of the indicated chemical then dip inoculated with Pst DC3000. (A) Photos taken 5 dpi. (B) Quantification of Pst DC3000 growth by counting colony forming units (cfu) at day 0 (grey bars) or day 3 (black bars). Significant differences were determined by Mann-Whitney U tests (p<0.05). (C) Pst DC3000 grown in liquid culture with 100 um of the indicated chemicals or 100 ug/ml hygromycin (HYG). OD600 reflecting bacterial density was measured at indicated times (hours) after inoculation. Standard errors were all less than 0.05 so are not visible on the graph. (D) Two week old cherry tomato seedlings sprayed 0.5 mM DCA, 4 mM SA or mock-treated two days prior to swab inoculation with Pst DC3000 (OD600=0.4). Photos were taken 6 days after Pst challenge.

Pst DC3000 [6] = assay: Pst DC3000 growth in liquid culture (OD600); format: cell-based, Pseudomonas syringae; conditions: 100 um in liquid culture
Pst DC3000 [7] = assay: Pst DC3000 disease symptoms in cherry tomato seedlings (swab inoculation); format: in vivo; conditions: 500 uM, sprayed two days prior to inoculation
Method: as §4

[8] = test system: cluster of 131 Arabidopsis genes (Table 1); assay: Affymetrix ATH1 whole genome microarray of induced transcriptional responses; format: in vivo
Method: This transient activity of DCA functionally discriminates it from INA and allows us to precisely correlate molecular event, such as transcriptional changes, with disease resistance. Therefore we performed a set of microarray experiments with Affymetrix ATH1 Arabidopsis whole genome chips profiling DCA- and INA-induced transcriptional responses at 48 h and 6 d post treatment. […] The reference accession numbers and information can be used by one of skill in the art to obtain the sequences and additional information from public databases available at the time of filing.

[9] = most Arabidopsis defense signaling mutants

O=C(O)c1cc(Cl)cc(Cl)c1 [3,5-Dichlorobenzoic acid, reference compound]
efficiency in inducing resistance to HpNoco2 (defense inducing activity) [1]: DCA is more active than 3,5-Dichlorobenzoic acid
efficiency in inducing −333_CaBP22::GUS expression (defense inducing activity) (−333_CaBP22::GUS [2]): DCA is more active than 3,5-Dichlorobenzoic acid

O=C(O)c1ccccc1 [benzoic acid, reference compound]
efficiency in inducing resistance to HpNoco2 (defense inducing activity) [1]: nearly completely inactive
efficiency in inducing −333_CaBP22::GUS expression (defense inducing activity) (−333_CaBP22::GUS [2]): nearly completely inactive

Nc1ccccc1C(=O)O [anthranilic acid, reference compound]
efficiency in inducing resistance to HpNoco2 (defense inducing activity) [1]: nearly completely inactive
efficiency in inducing −333_CaBP22::GUS expression (defense inducing activity) (−333_CaBP22::GUS [2]): nearly completely inactive

Nc1ccc(Cl)cc1C(=O)O [5-Chloroanthranilic acid]
efficiency in inducing resistance to HpNoco2 (defense inducing activity) [1]: reduced defense inducing activities
efficiency in inducing −333_CaBP22::GUS expression (defense inducing activity) (−333_CaBP22::GUS [2]): reduced defense inducing activities

O=C(O)c1ccccc1O [SA, salicylic acid]
efficiency in inducing resistance to HpNoco2 (defense inducing activity) [1]: less efficiently than DCA or INA
efficiency in inducing −333_CaBP22::GUS expression (defense inducing activity) (−333_CaBP22::GUS [2]): less efficiently than DCA or INA
EC50 (PR1): 65 µM

Nc1cccc(Cl)c1C(=O)O [6-Chloroanthranilic acid, reference compound]
efficiency in inducing resistance to HpNoco2 (defense inducing activity) [1]: completely inactive
efficiency in inducing −333_CaBP22::GUS expression (defense inducing activity) (−333_CaBP22::GUS [2]): completely inactive

Nc1c(Cl)cc(Cl)cc1C(=O)O [DCA, 3,5-Dichloroanthranilic acid]
EC50 (−333_CaBP22::GUS [3]; Arabidopsis thaliana, 24 h, 24 h): 6 µM
concentration at which active as inducer of −333_CaBP22::GUS (−333_CaBP22::GUS [3]; liquid medium, 24 h, FIG. 3B): 0.1 µM
active at x-fold lower concentrations than SA (−333_CaBP22::GUS induction) (−333_CaBP22::GUS [3]; versus SA, FIG. 3B): 10 fold
EC50 (−333_CaBP22::GUS [3]; 24 h): 7 µM
resistance to HpNoco2 in npr1 mutant ([1]; 100 uM pre-treatment 24 h, npr1 mutant): slight reduction
resistance to HpNoco2 in wrky70 mutant ([1]; 100 uM pre-treatment 24 h, wrky70 mutant): partially reduced
duration of defense-inducing activity ([1]; 100 uM, time-course, FIG. 9): only transiently active
time after treatment by which strong disease resistance is reached ([1]; 100 uM, time-course, FIG. 9): ≤ 1 h
efficiency in inducing resistance to HpNoco2 (defense inducing activity) [1]: nearly identical; also recorded: equally efficient
concentration giving efficient induction of disease resistance against virulent Peronospora (as low as) ([1]; sprayed on aerial parts of soil grown seedlings 24 h prior to HpNoco2): 10 µM
concentrations causing cell death (reduced GUS staining) [4]: higher than 100 μM
endogenous CaBP22 gene expression (CaBP22; 10 uM, wild type): activates
CaBP22 expression in most mutants with deficiencies in defense signaling (CaBP22; [9]): wild type expression
effect of nahG transgene on induction of CaBP22 (CaBP22; nahG (SA-catabolizing enzyme)): does not suppress
CaBP22-induction in wrky70 mutant (CaBP22; wrky70 mutant): blocked
WRKY70 expression (WRKY70; 10 uM, wild type): activates
WRKY70 expression in most mutants with deficiencies in defense signaling (WRKY70; [9]): wild type expression
effect of nahG transgene on induction of WRKY70 (WRKY70; nahG (SA-catabolizing enzyme)): does not suppress
disease resistance to Pst DC3000 ([5]; Arabidopsis Col-0): triggered disease resistance
suppression of bacterial growth (cfu) compared with SA and INA ([5]; day 3): more efficiently than SA or the frequently used SA analog INA
growth of Pst DC3000 in in vitro cultures (Pst DC3000 [6]): does not affect growth
Pst DC3000 mediated disease symptoms in tomato (Pst DC3000 [7]): suppressed Pst DC3000 mediated disease symptoms such as chlorosis
efficiency in inducing −333_CaBP22::GUS expression (defense inducing activity) (−333_CaBP22::GUS [2]): nearly identical
reporter gene expression after spraying aerial parts (−333_CaBP22::GUS [2]; spraying of 10-100 uM): induced reporter gene expression
up-regulation of cluster of 131 genes at 48 h post treatment [8]: significantly up-regulated
up-regulation of cluster of 131 genes at 6 d post treatment [8]: not at 6 d post DCA treatment

O=C(O)c1cc(Cl)nc(Cl)c1 [INA, 2,6-dichloroisonicotinic acid, reference compound]
duration of defense-inducing activity ([1]; 100 uM, time-course, FIG. 9): lasts much longer leading to strong disease resistance for the entire duration of the experiment
efficiency in inducing resistance to HpNoco2 (defense inducing activity) [1]: nearly identical; also recorded: equally efficient
efficiency in inducing −333_CaBP22::GUS expression (defense inducing activity) (−333_CaBP22::GUS [2]): nearly identical
up-regulation of cluster of 131 genes at 48 h post treatment [8]: significantly up-regulated
up-regulation of cluster of 131 genes at 6 d post treatment [8]: significantly up-regulated
EC50 (PR1): 10 µM

Nc1c(Cl)cccc1C(=O)O [3-Chloroanthranilic acid]
efficiency in inducing resistance to HpNoco2 (defense inducing activity) [1]: reduced defense inducing activities
efficiency in inducing −333_CaBP22::GUS expression (defense inducing activity) (−333_CaBP22::GUS [2]): reduced defense inducing activities

O=C(O)c1cccc(Cl)c1 [3-Chlorobenzoic acid, reference compound]
efficiency in inducing resistance to HpNoco2 (defense inducing activity) [1]: 3-Chloroanthranilic acid is more active than 3-Chlorobenzoic acid
efficiency in inducing −333_CaBP22::GUS expression (defense inducing activity) (−333_CaBP22::GUS [2]): 3-Chloroanthranilic acid is more active than 3-Chlorobenzoic acid

Source: patent US8603945B2, “Methods and compositions for providing salicyclic acid-independent pathogen resistance in plants” (The Regents of the University of California, priority 2008, dated 2013)
